Experiments:
[1] = tested on: indomethacin induced inflammatory bowel disease in rats; test: Rat model of inflammatory bowel disease (IBD); assay type: in vivo; settings: 5 days, female rats
Procedure: Budesonide and Budesonide PTNP were compared in a model of inflammatory bowel disease (IBD) as an efficacy model of inflammation. In this model, female rats were given two subcutaneous doses of 8 mg/kg indomethacin at 24 hour intervals to induce lesions resembling those occurring in Crohn's disease in the small intestine. Intravenous daily treatment with vehicle, budesonide (0.02, 0.2 or 2 mg/kg) or budesonide PTNP (0.02, 0.2 or 2 mg/kg) or oral daily treatment with Dexamethasone (0.1 mg/kg) was initiated one day before indomethacin treatment (day −1) and continued for 5 total days (days −1 to 3). Animals were euthanized on day 4, and a 10 cm area at risk in the small intestine was scored for gross pathology and weighed.
Using a disease scoring system in which a score of 0 is normal, and a score of 5 indicates death due to IBD symptoms, normal rats have an average score of 0, and an average intestinal weight of 0.488 g.

[2] = Rat pharmacokinetics after a single intravenous dose; assay type: in vivo, Rats (male Sprague Dawley); settings: single intravenous dose 0.5 mg/kg, plasma, individual rats
Procedure: Rats (male Sprague Dawley, approximately 300 g with jugular cannulae) were given a single intravenous dose of 0.5 mg/kg of budesonide or passively targeted nanoparticles (PTNP) encapsulating budesonide (prepared as in Example 16) at time=0. At various times after dosing, blood samples were collected from the jugular cannulae into tubes containing lithium heparin, and plasma was prepared. Plasma levels were determined by extraction of the budesonide from plasma followed by LCMS analysis.

AUCinf [2]: 159 ng·h/mL
t1/2 [2]: 45 min
Compound: CCCC1O[C@@H]2C[C@H]3[C@@H]4CCC5=CC(=O)C=C[C@]5(C)[C@H]4[C@@H](O)C[C@]3(C)[C@]2(C(=O)CO)O1 (some centres unmarked) [Budesonide, budesonide]
decrease of intestinal scores towards normal ([1]; 0.02 mg/kg intravenous daily): 52%
decrease of small intestine weights toward normal ([1]; 0.02 mg/kg intravenous daily): 52%
decrease of intestinal scores towards normal ([1]; 0.2 mg/kg intravenous daily): 53%
decrease of small intestine weights toward normal ([1]; 0.2 mg/kg intravenous daily): 53%
decrease of intestinal scores towards normal ([1]; 2 mg/kg intravenous daily): 59%
decrease of small intestine weights toward normal ([1]; 2 mg/kg intravenous daily): 59%

From patent US8518963B2, “Therapeutic polymeric nanoparticle compositions with high glass transition temperature or high molecular weight copolymers” (BIND Therapeutics, Inc., priority 2009, dated 2013)
